Results published in PubChem BioAssay (NCI).
Values joined by “and” are separate entries in the source; they are usually repeats but may differ in a detail not shown here. Identical values can stand only once.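 Assay format: 96-well plates, 48-hour exposure. GI50 is the concentration that inhibits growth by half. TGI: concentration producing complete growth inhibition.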

Columns and labels:
Experiment in all cases: inhibition of tumour cell growth, NCI panel, 48 h
SK-MEL-5 melanoma = system: SK-MEL-5 melanoma
SK-MEL-28 melanoma = system: SK-MEL-28 melanoma
COLO 205 colon = system: COLO 205 colon
SNB-75 CNS = system: SNB-75 CNS
SK-OV-3 ovarian = system: SK-OV-3 ovarian
KM12 colon = system: KM12 colon
HCC-2998 colon = system: HCC-2998 colon
CAKI-1 renal = system: CAKI-1 renal
SNB-19 CNS = system: SNB-19 CNS
K-562 leukemia = system: K-562 leukemia

SMILES	GI50 (SK-MEL-5 melanoma)	TGI (SK-MEL-5 melanoma)	GI50 (SK-MEL-28 melanoma)	TGI (SK-MEL-28 melanoma)	GI50 (COLO 205 colon)	TGI (COLO 205 colon)	GI50 (SNB-75 CNS)	TGI (SNB-75 CNS)	GI50 (SK-OV-3 ovarian)	TGI (SK-OV-3 ovarian)	GI50 (KM12 colon)	TGI (KM12 colon)	GI50 (HCC-2998 colon)	TGI (HCC-2998 colon)	GI50 (CAKI-1 renal)	TGI (CAKI-1 renal)	GI50 (SNB-19 CNS)	TGI (SNB-19 CNS)	TGI (K-562 leukemia)	GI50 (K-562 leukemia)
c1ccc(N2N=C(c3cccc(Nc4ccncc4)c3)CC2c2ccc3c(c2)OCO3)cc1 (stereo unspecified)	1.77 µM	3.17 µM	1.66 µM	3.14 µM	1.8 µM	3.84 µM	1.47 µM	3.74 µM	2.73 µM	10.2 µM	1.51 µM	3.18 µM	1.84 µM	3.36 µM	1.3 µM	2.69 µM	2.2 µM	6.67 µM		
CCOC1=NC(C(F)(F)F)(C(F)(F)F)N=C(N2CCOCC2)O1		> 100 µM		> 100 µM		> 100 µM		> 100 µM		> 100 µM		> 100 µM		> 100 µM		> 100 µM		> 100 µM		
COc1nc2ccc(COc3ccc(C(=O)NC(CCC(=O)O)C(=O)O)cc3)cc2nc1OC (stereo unspecified)		> 10 µM		> 10 µM		> 10 µM		> 10 µM		> 10 µM		> 10 µM		> 10 µM		> 10 µM		> 10 µM	> 10 µM	
COc1cc([C@@H]2c3cc4c(c(O)c3C[C@H]3COC(=O)[C@@H]32)OCO4)cc(OC)c1OC	0.0407 µM				0.239 µM		0.0203 µM		0.183 µM		0.104 µM		< 0.0241 µM and 0.241 µM		0.222 µM		0.114 µM			0.141 µM
O=C1C(Cl)N(c2cccc(Cl)c2)C1c1c[nH]c2ccccc12 (stereo unspecified)		> 100 µM		> 100 µM		> 100 µM		> 100 µM		> 100 µM		> 100 µM						> 100 µM	> 100 µM	
Nc1ccccc1Nc1ccccc1C(=O)[O-].Nc1ccccc1Nc1ccccc1C(=O)[O-].[Zn+2]		> 100 µM		> 100 µM		> 100 µM		49.1 µM		> 100 µM		> 100 µM		> 100 µM		> 100 µM		> 100 µM	> 100 µM	
Cc1nc2c(c(=O)[nH]1)S/C(=C(/C#N)c1nc3ccccc3[nH]1)N2c1ccccc1		> 100 µM		> 100 µM		> 100 µM		> 100 µM		> 100 µM		> 100 µM		> 100 µM		> 100 µM		> 100 µM	> 100 µM	
COc1ccc2c(c1O)-c1cc(O)cc3c1[C@@H](C2)N(C)CC3		122 µM		157 µM		106 µM		124 µM		289 µM		114 µM		139 µM		142 µM		378 µM	241 µM	
C=C(C)C(=O)O[C@H]1CC2=C[C@@H](C[C@@]3(C)O[C@@H]3[C@H]3OC(=O)C(=C)[C@@H]31)OC2=O		8.22 µM	1.24 µM	3.61 µM		3.4 µM		18.4 µM		34.9 µM		8.6 µM		9.82 µM	2.63 µM	6.25 µM		49.1 µM	47.6 µM	1.21 µM
C(/C=C/c1ccccc1)=Nc1ccc2c(c1)Cc1ccccc1-2		> 100 µM		> 100 µM				> 100 µM				> 100 µM				> 100 µM		> 100 µM	> 100 µM	
COc1cc(C2S/C(=C/c3ccccc3)C(=O)N2c2ccc(NC(C)=O)cc2)cc(OC)c1OC (stereo unspecified)		34.9 µM		> 100 µM		30.3 µM		37.5 µM		> 100 µM		31 µM		52.3 µM		72.4 µM		> 100 µM	> 100 µM	
NC(CSCc1ccc(I)cc1)C(=O)O (stereo unspecified)		> 100 µM		> 100 µM		> 100 µM		> 100 µM		> 100 µM		> 100 µM		> 100 µM		> 100 µM		> 100 µM	> 100 µM	
CC[C@@H]1ON(C)[C@H]2CN(C)C(=O)[C@@H]12		> 100 µM		> 100 µM		> 100 µM				> 100 µM				> 100 µM		> 100 µM		> 100 µM	> 100 µM	
CC(=O)N1N=C(c2ccc3ccccc3c2O)CC1c1cccs1 (stereo unspecified)		> 100 µM		> 100 µM		> 100 µM		> 100 µM		> 100 µM		46.4 µM		66 µM		> 100 µM			22.5 µM	
